Assay results taken from US10385069B2, “Imidazo[2,1-B]thiazole and 5,6-dihydroimidazo[2,1-B]thiazole derivatives useful as S100-inhibitors” (Active Biotech AB, priority 2015, dated 2019).

Target: T1, interaction between biotinylated human S100A9 and human RAGE-Fc (Homo sapiens, UniProt P06702)
T1 construct: made in house; host or cells: E. coli
T1 sequence (P06702 1-114): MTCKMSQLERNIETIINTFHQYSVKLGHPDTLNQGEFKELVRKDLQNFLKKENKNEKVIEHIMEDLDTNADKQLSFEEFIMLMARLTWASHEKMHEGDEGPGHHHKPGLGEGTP
Test: AlphaScreen inhibition assay, biot-hS100A9:hRAGE-Fc
Format: binding
Conditions: biot-hS100A9 pre-incubated with compound 1 h, assay buffer with CaCl2 and ZnCl2
How it was run: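 Biotinylated human S100A9, preincubated with compound, binds human RAGE-Fc on protein A Acceptor beads in HBS-P with CaCl2 and ZnCl2; streptavidin Donor beads added, AlphaScreen signal read. Protein levels set by cross-titration; beads 20 μg/mL final. Percent inhibition versus DMSO control; IC50 from varied compound concentrations.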

Q: With `O=C(O)c1cn2c(n1)sc1c(F)c(F)ccc12` [Example 209, 9,10-Difluoro-7-thia-2,5-diazatricyclo[6.4.0.0^2,6]dodeca-1(8),3,5,9,11-pentaene-4-carboxylic acid] as the compound, how does the IC50 read?
A: 1020 nM

Q: `CC1(C)Cc2c(sc3nc(C(=O)O)c(Cl)n23)C(C)(C)C1` [Example 207, 3-Chloro-9,9,11,11-tetramethyl-7-thia-2,5-diazatricyclo[6.4.0.0^2,6]dodeca-1(8),3,5-triene-4-carboxylic acid] was tested. Which IC50 did it give?
A: 780 nM

Q: Which IC50 does the source give for `CC(=O)N1CCN(c2c(C(=O)O)nc3sc4c(n23)CC(C)(C)CC4(C)C)CC1` [Example 284, 3-(4-Acetylpiperazin-1-yl)-9,9,11,11-tetramethyl-7-thia-2,5-diazatricyclo[6.4.0.0^2,6]dodeca-1(8),3,5-triene-4-carboxylic acid] here?
A: 700 nM

Q: For `CC1CCCc2c1sc1nc(C(=O)O)cn21` (centres unmarked) [Example 44, 9-Methyl-7-thia-2,5-diazatricyclo[6.4.0.0^2,6]dodeca-1(8),3,5-triene-4-carboxylic acid], which IC50 is on record?
A: 840 nM

Q: With `CC(=O)NCc1c(C(=O)O)nc2sc3c(n12)CCC(C(C)(C)C)C3` (centres unmarked) [Example 255, 10-tert-Butyl-3-(acetamidomethyl)-7-thia-2,5-diazatricyclo[6.4.0.0^2,6]dodeca-1(8),3,5-triene-4-carboxylic acid] as the compound, how does the IC50 read?
A: 1150 nM

Q: With `O=C(O)c1cn2c(n1)sc1ccc(Cl)cc12` [Example 12, 11-Chloro-7-thia-2,5-diazatricyclo[6.4.0.0^2,6]dodeca-1(8),3,5,9,11-pentaene-4-carboxylic acid] as the compound, how does the IC50 read?
A: 5610 nM

Q: Which IC50 does the source give for `CON(C)Cc1c(C(=O)O)nc2sc3c(n12)CCC(C(C)(C)C)C3` (centres unmarked) [Example 257, 10-tert-Butyl-3-{[methoxy(methyl)amino]methyl}-7-thia-2,5-diazatricyclo[6.4.0.0^2,6]dodeca-1(8),3,5-triene-4-carboxylic acid] here?
A: 890 nM

Q: `O=C(O)c1cn2c3c(sc2n1)CCCC3` [Example 31, 7-Thia-2,5-diazatricyclo[6.4.0.0^2,6]dodeca-1(8),3,5-triene-4-carboxylic acid] was tested. Which IC50 did it give?
A: 2390 nM

Q: Which IC50 does the source give for `CC1(C(=O)NS(C)(=O)=O)CN2C(=N1)Sc1c2ccc(F)c1Cl` (centres unmarked) [Example 294, 9-Chloro-10-fluoro-N-methanesulfonyl-4-methyl-7-thia-2,5-diazatricyclo[6.4.0.0^2,6]dodeca-1(8),5,9,11-tetraene-4-carboxamide] here?
A: 780 nM

Q: For `CN(C)Cc1c(C(=O)O)nc2sc3c(Cl)c(Cl)ccc3n12` [Example 203, 9,10-Dichloro-3-[(dimethylamino)methyl]-7-thia-2,5-diazatricyclo[6.4.0.0^2,6]dodeca-1(8),3,5,9,11-pentaene-4-carboxylic acid], which IC50 is on record?
A: 780 nM

Q: For `CC1(C)Cc2c(sc3nc(C(=O)O)c(Br)n23)C(C)(C)C1` [Example 222, 3-Bromo-9,9,11,11-tetramethyl-7-thia-2,5-diazatricyclo[6.4.0.0^2,6]dodeca-1(8),3,5-triene-4-carboxylic acid], which IC50 is on record?
A: 690 nM

Q: Which IC50 does the source give for `CC1CCCc2c1sc1nc(C(=O)NS(C)(=O)=O)cn21` (single isomer, unassigned) [Example 48, N-Methanesulfonyl-9-methyl-7-thia-2,5-diazatricyclo[6.4.0.0^2,6]dodeca-1(8),3,5-triene-4-carboxamide] here?
A: 1200 nM

Q: Which IC50 does the source give for `O=C(NS(=O)(=O)C(F)(F)F)c1cn2c(n1)sc1c(Cl)c(Cl)ccc12` [Example 26, 9,10-Dichloro-N-trifluoromethanesulfonyl-7-thia-2,5-diazatricyclo[6.4.0.0^2,6]dodeca-1(8),3,5,9,11-pentaene-4-carboxamide] here?
A: 420 nM

Q: For `CN(C)c1c(C(=O)O)nc2sc3c(n12)CC(C)(C)CC3(C)C` [Example 280, 3-(Dimethylamino)-9,9,11,11-tetramethyl-7-thia-2,5-diazatricyclo[6.4.0.0^2,6]dodeca-1(8),3,5-triene-4-carboxylic acid], which IC50 is on record?
A: 420 nM

Q: For `CC(C)(C)Nc1c(C(=O)O)nc2sc3c(n12)CCC(C(C)(C)C)C3` (centres unmarked) [Example 40, 10-tert-Butyl-3-(tert-butylamino)-7-thia-2,5-diazatricyclo[6.4.0.0^2,6]dodeca-1(8),3,5-triene-4-carboxylic acid], which IC50 is on record?
A: 460 nM

Q: For `O=C(O)c1cn2c(n1)sc1c(F)c(Cl)ccc12` [Example 3, 10-Chloro-9-fluoro-7-thia-2,5-diazatricyclo[6.4.0.0^2,6]dodeca-1(8),3,5,9,11-pentaene-4-carboxylic acid], which IC50 is on record?
A: 350 nM

Q: How did the IC50 turn out when `CC(C)(C)C1CCc2c(sc3nc(CC(=O)O)cn23)C1` (centres unmarked) [Example 45, 2-{10-tert-Butyl-7-thia-2,5-diazatricyclo[6.4.0.0^2,6]dodeca-1(8),3,5-trien-4-yl}acetic acid] was run?
A: 3100 nM

Q: For `Cc1c(C(=O)O)nc2sc3c(n12)CC(C)(C)CC3(C)C` [Example 245, 3,9,9,11,11-Pentamethyl-7-thia-2,5-diazatricyclo[6.4.0.0^2,6]dodeca-1(8),3,5-triene-4-carboxylic acid], which IC50 is on record?
A: 270 nM

Q: Which IC50 does the source give for `CN1CCN(c2c(C(=O)O)nc3sc4c(Cl)c(F)ccc4n23)CC1` [Example 276, 9-Chloro-10-fluoro-3-(4-methylpiperazin-1-yl)-7-thia-2,5-diazatricyclo[6.4.0.0^2,6]dodeca-1(8),3,5,9,11-pentaene-4-carboxylic acid] here?
A: 390 nM

Q: With `O=C(O)c1cn2c(n1)sc1c(OC(F)(F)F)cccc12` [Example 198, 9-(Trifluoromethoxy)-7-thia-2,5-diazatricyclo[6.4.0.0^2,6]dodeca-1(8),3,5,9,11-pentaene-4-carboxylic acid] as the compound, how does the IC50 read?
A: 1560 nM

Q: For `O=C(NS(=O)(=O)C1CC1)c1cn2c(n1)sc1c(Cl)c(Cl)ccc12` [Example 22, 9,10-Dichloro-N-(cyclopropanesulfonyl)-7-thia-2,5-diazatricyclo[6.4.0.0^2,6]dodeca-1(8),3,5,9,11-pentaene-4-carboxamide], which IC50 is on record?
A: 280 nM

Q: `C#Cc1c(C(=O)O)nc2sc3c(n12)CC(C)(C)CC3(C)C` [Example 229, 3-Ethynyl-9,9,11,11-tetramethyl-7-thia-2,5-diazatricyclo[6.4.0.0^2,6]dodeca-1(8),3,5-triene-4-carboxylic acid] was tested. Which IC50 did it give?
A: 740 nM

Q: With `O=C(O)C1(Cc2ccccc2)CN2C(=N1)Sc1c2ccc(F)c1Cl` (centres unmarked) [Example 262, 4-Benzyl-9-chloro-10-fluoro-7-thia-2,5-diazatricyclo[6.4.0.0^2,6]dodeca-1(8),5,9,11-tetraene-4-carboxylic acid] as the compound, how does the IC50 read?
A: 770 nM

Q: With `O=C(O)c1cn2c(n1)sc1cc(Br)ccc12` [Example 13, 10-Bromo-7-thia-2,5-diazatricyclo[6.4.0.0^2,6]dodeca-1(8),3,5,9,11-pentaene-4-carboxylic acid] as the compound, how does the IC50 read?
A: 1300 nM

Q: How did the IC50 turn out when `CC1(C)Cc2c(sc3nc(C(=O)O)c(CN4CCOCC4)n23)C(C)(C)C1` [Example 246, 9,9,11,11-Tetramethyl-3-(morpholin-4-ylmethyl)-7-thia-2,5-diazatricyclo[6.4.0.0^2,6]dodeca-1(8),3,5-triene-4-carboxylic acid] was run?
A: 600 nM

Q: How did the IC50 turn out when `CC(C)(C)C1CCc2c(sc3nc(C(=O)O)c(CN4CCCCC4=O)n23)C1` (centres unmarked) [Example 244, 10-tert-Butyl-3-[(2-oxopiperidin-1-yl)methyl]-7-thia-2,5-diazatricyclo[6.4.0.0^2,6]dodeca-1(8),3,5-triene-4-carboxylic acid] was run?
A: 1130 nM

Q: `CC(C)(C)C1CCc2c(sc3nc(C(=O)NC#N)cn23)C1` (centres unmarked) [Example 58, 10-tert-Butyl-N-cyano-7-thia-2,5-diazatricyclo[6.4.0.0^2,6]dodeca-1(8),3,5-triene-4-carboxamide] was tested. Which IC50 did it give?
A: 640 nM

Q: For `CC1(C)Cc2c(sc3nc(C(=O)O)c(C4CC4)n23)C(C)(C)C1` [Example 258, 3-Cyclopropyl-9,9,11,11-tetramethyl-7-thia-2,5-diazatricyclo[6.4.0.0^2,6]dodeca-1(8),3,5-triene-4-carboxylic acid], which IC50 is on record?
A: 510 nM

Q: For `CC(=O)N1CCN(Cc2c(C(=O)O)nc3sc4c(n23)CCC(C(C)(C)C)C4)CC1` (centres unmarked) [Example 275, 3-[(4-Acetylpiperazin-1-yl)methyl]-10-tert-butyl-7-thia-2,5-diazatricyclo[6.4.0.0^2,6]dodeca-1(8),3,5-triene-4-carboxylic acid], which IC50 is on record?
A: 1090 nM

Q: `O=C(O)c1cn2c(n1)sc1c(Cl)c(Cl)cc(OCCN3CCOCC3)c12` [Example 241, 9,10-Dichloro-12-[2-(morpholin-4-yl)ethoxy]-7-thia-2,5-diazatricyclo[6.4.0.0^2,6]dodeca-1(8),3,5,9,11-pentaene-4-carboxylic acid] was tested. Which IC50 did it give?
A: 690 nM

Q: `O=C(O)c1cn2c3c(sc2n1)CC(c1ccccc1)CC3` (centres unmarked) [Example 34, 10-Phenyl-7-thia-2,5-diazatricyclo[6.4.0.0^2,6]dodeca-1(8),3,5-triene-4-carboxylic acid] was tested. Which IC50 did it give?
A: 1500 nM

Q: `O=C(O)c1cn2c(n1)sc1c(Cl)c(N3CCCC3)ccc12` [Example 248, 9-Chloro-10-(pyrrolidin-1-yl)-7-thia-2,5-diazatricyclo[6.4.0.0^2,6]dodeca-1(8),3,5,9,11-pentaene-4-carboxylic acid] was tested. Which IC50 did it give?
A: 1000 nM

Q: `COc1ccc(-c2c(C(=O)O)nc3sc4c(n23)CC(C)(C)CC4(C)C)cc1` [Example 254, 3-(4-Methoxyphenyl)-9,9,11,11-tetramethyl-7-thia-2,5-diazatricyclo[6.4.0.0^2,6]dodeca-1(8),3,5-triene-4-carboxylic acid] was tested. Which IC50 did it give?
A: 1150 nM

Q: With `O=C(O)c1cn2c(n1)sc1c(Cl)c(F)ccc12` [Example 2, 9-Chloro-10-fluoro-7-thia-2,5-diazatricyclo[6.4.0.0^2,6]dodeca-1(8),3,5,9,11-pentaene-4-carboxylic acid] as the compound, how does the IC50 read?
A: 250 nM

Q: `O=C(O)c1cn2c(n1)sc1c(Cl)c(C3CC3)ccc12` [Example 252, 9-Chloro-10-cyclopropyl-7-thia-2,5-diazatricyclo[6.4.0.0^2,6]dodeca-1(8),3,5,9,11-pentaene-4-carboxylic acid] was tested. Which IC50 did it give?
A: 290 nM
